From US12605411B2, “Phospholipid compositions for delivery of therapeutic compounds” (Aker BioMarine Human Ingredients AS, priority 2022, dated 2026)
≈ marks a conversion by molar mass, not a printed value. Values belong to the compound of their own block, whether it stands above or below them.

How the values were obtained:
[1] = Plasma CBD concentration after dosing (FIG. 5); assay type: in vivo
[2] = humans, taken orally; cited from earlier work
[3] = cited from earlier work
[4] = cited from earlier work; remark: listed apart in the source
[5] = CoQ10 absorption in plasma after single dose, clinical study; assay type: in vivo, human
Protocol: The purpose of the study was to investigate compare the CoQ10 level of absorption in the plasma of a phospholipid krill oil+CoQ10 product to a comparator CoQ10-product (without any krill oil).
Absorption levels of CoQ10 in plasma were measured at time (T)=0, 2, 4, 6 and 8 hours after the single-dose (2 soft gels) intake of the study products. A 7-day minimum washout period between the two doses was specified.
A total of 13 subjects successfully completed the study.

SMILES: C=C(C)[C@@H]1CCC(C)=C[C@H]1c1c(O)cc(CCCCC)cc1O [CBD, Cannabidiol]
increase of bioavailability of CBD ([1]; krill oil compared to MCT, FIG. 5): 3 fold | absorption of CBD (plasma CBD concentration) ([1]; krill oil vs medium chain triglyceride (MCT) oil): much greater extent | bioavailability [2]: around 6%

SMILES: O=c1c(O)c(-c2ccc(O)c(O)c2)oc2cc(O)cc(O)c12 [Quercetin]
Solubility ethanol [3]: 2000 µg/mL (≈ 6.62 mM) | logP [4]: 1.50

SMILES: O=c1c(O)c(-c2ccc(O)c(O)c2)oc2cc(O)ccc12 [Fisetin]
solubility [3]: < 1000 µg/mL | Solubility ethanol [3]: 5000 µg/mL (≈ 17.5 mM) | Solubility water ([3]; water): 150 µg/mL (≈ 0.524 mM) | logP [4]: 1.81-2.03

absorption of CoQ10 in plasma, change from baseline (in words) ([5]; 0-8 hours after single dose, 13 subjects): No significant absorption | Change of plasma CoQ10 from baseline ([5]; 2 hours): −11.49% | Change of plasma CoQ10 from baseline ([5]; 4 hours): −4.53% | Change of plasma CoQ10 from baseline ([5]; 6 hours): 1.71% | Change of plasma CoQ10 from baseline ([5]; 8 hours): 6.15% | concentration at 2 h ([5]; human, plasma, oral, 2 soft gels, 2 hours after single dose): 8780 ng/mL | concentration at 4 h ([5]; human, plasma, oral, 2 soft gels, 4 hours after single dose): 9570 ng/mL | concentration at 6 h ([5]; human, plasma, oral, 2 soft gels, 6 hours after single dose): 10100 ng/mL | concentration at 8 h ([5]; human, plasma, oral, 2 soft gels, 8 hours after single dose): 10500 ng/mL | concentration at 0 h ([5]; human, plasma, oral, 2 soft gels, Baseline): 9920 ng/mL
SMILES: COC1=C(OC)C(=O)C(C/C=C(\C)CC/C=C(\C)CC/C=C(\C)CC/C=C(\C)CC/C=C(\C)CC/C=C(\C)CC/C=C(\C)CC/C=C(\C)CC/C=C(\C)CCC=C(C)C)=C(C)C1=O [CoQ10, Coenzyme Q10]
